Assay results reported in paper PMC12125420, “Yinling Qushi Granule as a therapeutic agent for metabolic syndrome: pharmacological, molecular targets, and pharmacokinetic insights” (Advanced Biotechnology, 2025).

Experiment: in vivo
Details: male, Sprague-Dawley, rat, po, 36.99 g/kg
Protocol: (§1) SPF grade Sprague–Dawley rats (n = 6, male, 8–10-week-old, 300 ± 20 g) were obtained from the Guangdong Medical Laboratory Animal Center (Guangzhou, China, Certificate No. SCXK 2022–0002), maintained in environmental conditions with a temperature of 20–25 °C, humidity of 55 ± 15%, and a 12-h light/dark cycle. Animals were acclimated for 7 days prior to drug administration. The experimental procedures and protocols have been approved by the Animal Ethics Committee of the School of Life Sciences, Sun Yat-sen University (Ethics approval No. SYSU-lS-IACUC- 2024–0130, Guangzhou, China), with every effort being made to minimize the suffering of the animals.
(§2) In order to investigate the absorbable components in vivo, Yinling Qushi (YLQS) extract was prepared as follows: 77.76 g of Poria cocos (Schw.) Wolf (Fuling, FL), 29.16 g of Atractylodes macrocephala Koidz. (Baizhu, BZ), 12.96 g of Zingiber officinale Rosc. (Ganjiang, GJ), 19.44 g of Polyporus umbellatus (Pers.) Fries (Zhuling, ZL), 19.44 g of Cinnamomum cassia Presl (Guizhi, GZ), 24.30 g Artemisia capillaris Thunb. (Yinchen, YC), 19.44 g Glehnia littoralis Fr.Schmidt ex Miq. (Beishashen, BSS) and 19.44 g of Glycyrrhiza uralensis Fisch. (Gancao, GC) were weighted. The weighted herbs were mixed thoroughly and extracted with 750 mL boiling water for 1 h, twice. The aqueous extracts were combined, filtered, and concentrated by rotary evaporation to a total volume of 12 mL, with a final extraction yield of 18.5 g crude herbal materials per 1 mL of Yinling Qushi (YLQS) extract.
(§3) SD Rats were fasted for 12 h, followed by orally administrated with Yinling Qushi (YLQS) extract at a dose of 36.99 g/kg (6.7 mL/kg). 200 μL of venous blood was collected at 0 min, 15 min, 30 min, 1 h, 2 h, 4 h, 6 h, 8 h, 10 h, 12 h, and 24 h post-gavage. Serum samples were freshly prepared by centrifugation (3,000 g, 20 min, 4 ℃), supernatant collection and storage at − 80 ℃ till analysis.
(§4) For serum extraction, 90 μL serum of indicated time points were pre-mixed with 10 μL IS working solution (myristic acid-D27, 10 μg/mL in methanol). 1 mL ethyl acetate was added to 100 μL premixed serum, vortexed vigorously for 5 min, and centrifuged (10,000 g, 15 min, 4 ℃) for protein precipitation. 700 μL of supernatant was transferred and evaporated to dryness under nitrogen flow. Prior to assay, samples were re-suspended with 100 μL methanol: distill water solution (4:1, v/v), sonicated and vortex-mixing for dissolve completely, and centrifuged (10,000 g, 20 min, 4 ℃). 10 μL of supernatant was analyzed using a connected system of AQUITY UPLC (Waters Corp., Milford, MA, USA) hybrid ZenoTOF 7600-MS/MS system (AB Sciex, Framingham, MA, USA) with electrospray ionization (ESI) source.
(§5) A reversed-phase Kinetex C18 column (2.1 × 100 mm, 2.6 μm, Phenomenex, CA, USA) was used, with 0.3 mL/min flow rate at 40 ℃. The mobile phase consisted of an aqueous solvent A (0.1% formic acid, v/v) and organic solvent B (acetonitrile with 0.1% formic acid, v/v). The elution gradient was as follows: 5–30% B (0–20 min); 30–95% B (20–27 min), maintained at 95% B (27–32 min); 95–5% B (32–33 min); and 5% B (33–38 min) to equilibrate the system.
(§6) The instrumental parameters of mass spectrometry were as follows: ion source gas 1 and gas 2 were both 55 psi, curtain gas was 35 psi, the CAD gas was 8 psi, and the ion source temperature was 550 °C. The ion spray voltage floating (ISVF) was set to 5500 V for positive mode and − 4500 V for negative mode. The collision energy (CE) and collision energy spread (CES) were set to 35 V and 15 eV, and declustering potential was 80 V. The mass-to-charge ratio (m/z) range was set to 50–1500 Da, with an accumulation time of 0.15 s. Data were collected by SCIEX OS software (version 3.3.0.12027, AB Sciex, Framingham, MA, USA) in information-dependent acquisition (IDA) mode.

| SMILES | AUC(0-inf) | AUC(0-t) | Cmax | Tmax | half-life |
| --- | --- | --- | --- | --- | --- |
| CC(C)=CC1CC(C2CCC3(C)C4=CCC5C(C)(CCC(O)C5(C)C)C4=CCC23C)C(=O)O1 (stereo not drawn) [Porilactone A] | 9.2 ± 0.744 µg·h/mL | 9.46 ± 0.501 µg·h/mL | 0.846 ± 0.0319 µg/mL | 6.5 ± 1.89 h | 2.15 ± 0.24 h |
| CC(C)=CCCC(C(=O)O)C1C(O)CC2(C)C3=CCC4C(C)(CCC(O)C4(C)C)C3=CCC12C (stereo not drawn) [16alpha-Hydroxydehydrotrametenolic acid] | 136 µg·h/mL | 136 µg·h/mL | 16.8 µg/mL | 4.4 ± 0.75 h | 1.78 ± 0.09 h |
| CC(=CCCC(C(=O)O)C1C(O)CC2(C)C3=CCC4C(C)(CCC(O)C4(C)C)C3=CCC12C)CO (stereo not drawn) [Dihydroxydehydrotrametenoic acid] | 3.27 ± 0.142 µg·h/mL | 3.03 ± 0.356 µg·h/mL | 0.308 ± 0.0356 µg/mL | 4.4 ± 0.75 h | 4.98 ± 1.07 h |
| CC(C)C(=O)CCC(C(=O)O)C1C(O)CC2(C)C3=C(CCC12C)C1(C)CCC(O)C(C)(C)C1CC3 (stereo not drawn) [Daedaleanic acid B] | 0.17 ± 0.0276 µg·h/mL | 0.129 ± 0.0325 µg·h/mL | 0.0206 ± 0.0008 µg/mL | 1.35 ± 0.68 h | 3.84 ± 0.75 h |

Experiment: not given
Details: rat, in vivo

| SMILES | Absorption pattern of serum concentration-time curve |
| --- | --- |
| CC(C)=CC1CC(C2CCC3(C)C4=CCC5C(C)(CCC(O)C5(C)C)C4=CCC23C)C(=O)O1 (stereo not drawn) [Porilactone A] | double-peak absorption pattern |

Experiment: Pharmacokinetics of absorbed triterpenoid prototypes in rat serum after oral YLQS extract
Details: male, Sprague-Dawley, 36.99 g/kg
Protocol: as §1, §2, §3, §4, §5, §6

| AUC(0-inf) | AUC(0-t) | Cmax | Tmax | half-life | SMILES |
| --- | --- | --- | --- | --- | --- |
| 4.42 ± 0.367 µg·h/mL | 4.09 ± 0.442 µg·h/mL | 0.47 ± 0.0892 µg/mL | 5.5 ± 0.96 h | 3.5 ± 1.08 h | C=C(C)[C@@H]1CCC2=C(CC[C@]3(C)[C@@H]([C@@H](CCC=C(C)C)C(=O)O)[C@H](O)C[C@@]23C)[C@@]1(C)CCC(=O)O [Poricoic acid G] |
| 2.54 ± 0.264 µg·h/mL | 1.97 ± 0.28 µg·h/mL | 0.29 ± 0.0445 µg/mL | 5.6 ± 0.75 h | 4.95 ± 0.81 h | C=C(C)C1CC=C2C(=CCC3(C)C(C(CCC=C(C)C)C(=O)O)CCC23C)C1(C)CCC(=O)O (stereo not drawn) [16-Deoxyporicoic acid B] |
| 0.223 ± 0.0306 µg·h/mL | 0.205 ± 0.0251 µg·h/mL | 0.016 ± 0.0027 µg/mL | 8.5 ± 1.5 h | 6.64 ± 0.75 h | C=C(C)C1CC=C2C(=CCC3(C)C(C(CCC=C(C)CO)C(=O)O)C(O)CC23C)C1(C)CCC(=O)O (stereo not drawn) [Poricoic acid E] |
| 0.082 ± 0.0051 µg·h/mL | 0.068 ± 0.0101 µg·h/mL | 0.0075 ± 0.0013 µg/mL | 6.4 ± 1.72 h | 5.51 ± 0.88 h | C=C(C)C1CC=C2C(=CCC3(C)C(C(CCC(=C)C(C)(C)O)C(=O)O)C(O)CC23C)C1(C)CCC(=O)O (stereo not drawn) [Poricoic acid D] |
| 0.105 ± 0.0136 µg·h/mL | 0.0771 ± 0.0124 µg·h/mL | 0.0132 ± 0.002 µg/mL | 4 ± 1.41 h | 4.61 ± 1.21 h | C=C(C)[C@@H]1CC=C2C(=CC[C@]3(C)[C@@H]([C@@H](CCC(=C)C(C)(C)O)C(=O)O)[C@H](O)C[C@@]23C)[C@@]1(C)CCC(=O)OC [Poricoic acid DM] |
| 2.29 ± 0.621 µg·h/mL | 2.71 ± 0.417 µg·h/mL | 0.214 ± 0.0538 µg/mL | 5.5 ± 0.96 h | 4.11 ± 0.82 h | C=C(C)[C@@H]1CC=C2C(=CC[C@]3(C)[C@@H]([C@@H](CCC=C(C)C)C(=O)O)[C@H](O)C[C@@]23C)[C@@]1(C)CCC(=O)O [Poricoic acid B] |
